Experimental data from ChEMBL document CHEMBL1132922, “Corticotropin releasing factor (CRF) receptor modulators: progress and opportunities for new therapeutic agents” (J Med Chem, 2000).
Residues, ends and D or L forms follow the SMILES beside them.

Tests used:
[1] = target: T1, Corticotropin-releasing factor receptor 2 (Homo sapiens, UniProt Q13324); assay: Activity of peptidic agonists on h-CRF2-alpha receptor using agonist-stimulated adenylate cyclase assay; assay type: functional
T1 sequence (Q13324 whole entry): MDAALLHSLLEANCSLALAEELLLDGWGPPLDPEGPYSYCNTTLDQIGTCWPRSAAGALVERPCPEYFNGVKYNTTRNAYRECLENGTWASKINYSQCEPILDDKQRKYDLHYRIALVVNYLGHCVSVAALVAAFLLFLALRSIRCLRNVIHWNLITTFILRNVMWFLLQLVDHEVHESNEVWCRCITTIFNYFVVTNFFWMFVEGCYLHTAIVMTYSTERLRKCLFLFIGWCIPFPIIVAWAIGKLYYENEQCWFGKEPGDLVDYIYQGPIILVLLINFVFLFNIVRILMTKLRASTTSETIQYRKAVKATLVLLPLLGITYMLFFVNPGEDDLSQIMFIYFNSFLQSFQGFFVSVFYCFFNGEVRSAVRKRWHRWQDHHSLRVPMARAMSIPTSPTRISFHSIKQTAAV

[2] = target: T2, Corticotropin-releasing factor receptor 1 (Homo sapiens, UniProt P34998); assay: Binding affinity of the receptor corticotropin releasing factor receptor with peptidic agonists
T2 sequence (P34998 whole entry): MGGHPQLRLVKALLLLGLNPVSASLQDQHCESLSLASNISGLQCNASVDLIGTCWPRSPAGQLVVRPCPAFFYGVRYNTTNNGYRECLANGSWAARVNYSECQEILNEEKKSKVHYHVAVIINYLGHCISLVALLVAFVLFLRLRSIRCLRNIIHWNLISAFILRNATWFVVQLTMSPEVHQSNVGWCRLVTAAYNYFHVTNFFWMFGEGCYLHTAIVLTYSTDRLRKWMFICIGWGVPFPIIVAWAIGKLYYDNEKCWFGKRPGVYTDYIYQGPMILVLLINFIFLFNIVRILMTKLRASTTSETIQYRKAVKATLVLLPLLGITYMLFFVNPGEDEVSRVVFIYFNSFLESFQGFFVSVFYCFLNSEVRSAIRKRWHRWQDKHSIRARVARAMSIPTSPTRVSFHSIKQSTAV

[3] = target: T2, Corticotropin-releasing factor receptor 1; assay: Activity of peptidic agonists on corticotropin releasing factor receptor using agonist-stimulated adenylate cyclase assay; assay type: functional
[4] = target: T1, Corticotropin-releasing factor receptor 2; assay: Binding affinity of the receptor h-CRF2-alpha with peptidic agonists

| EC50 [1] | Ki [2] | EC50 [3] | Ki [4] | Structure (SMILES) |
| --- | --- | --- | --- | --- |
| 0.32 nM | 3.76 nM | 0.22 nM | 3.6 nM | CC[C@H](C)[C@H](NC(=O)[C@H](CO)NC(=O)[C@H](CC(C)C)NC(=O)[C@H](CO)NC(=O)[C@@H]1CCCN1C(=O)[C@H](CC(N)=O)NC(=O)[C@@H](N)CC(=O)O)C(=O)N[C@@H](CC(=O)O)C(=O)N[C@@H](CC(C)C)C(=O)N[C@H](C(=O)N[C@@H](Cc1ccccc1)C(=O)N[C@@H](Cc1cnc[nH]1)C(=O)N[C@@H](CC(C)C)C(=O)N[C@@H](CC(C)C)C(=O)N[C@@H](CCCNC(=N)N)C(=O)N[C@H](C(=O)N[C@@H](CC(C)C)C(=O)N[C@@H](CC(C)C)C(=O)N[C@@H](CCC(=O)O)C(=O)N[C@@H](CC(C)C)C(=O)N[C@@H](C)C(=O)N[C@@H](CCCNC(=N)N)C(=O)N[C@H](C(=O)N[C@@H](CCC(N)=O)C(=O)N[C@@H](CO)C(=O)N[C@@H](CCC(N)=O)C(=O)N[C@@H](CCCNC(=N)N)C(=O)N[C@@H](CCC(=O)O)C(=O)N[C@@H](CCCNC(=N)N)C(=O)N[C@@H](C)C(=O)N[C@@H](CCC(=O)O)C(=O)N[C@@H](CCC(N)=O)C(=O)N[C@@H](CC(N)=O)C(=O)N[C@@H](CCCNC(=N)N)C(=O)N[C@H](C(=O)N[C@H](C(=O)N[C@@H](Cc1ccccc1)C(=O)N[C@@H](CC(=O)O)C(=O)N[C@@H](CO)C(=O)N[C@H](C(N)=O)C(C)C)[C@@H](C)CC)[C@@H](C)CC)[C@@H](C)O)[C@@H](C)O)[C@@H](C)O (H-DNPSLSIDLTFHLLRTLLELARTQSQRERAEQNRIIFDSV-NH2) |
| 1.4 nM | 7.3 nM | 3.4 nM | 2.73 nM | CC[C@H](C)[C@H](NC(=O)[C@@H](NC(=O)[C@H](CC(=O)O)NC(=O)[C@H](CC(C)C)NC(=O)[C@H](CC(C)C)NC(=O)[C@H](CC(C)C)NC(=O)[C@H](CCCN=C(N)N)NC(=O)[C@H](CC(N)=O)NC(=O)[C@H](CC(N)=O)NC(=O)[C@H](C)NC(=O)[C@H](C)NC(=O)[C@H](CCC(N)=O)NC(=O)[C@H](CCC(N)=O)NC(=O)[C@H](CCCCN)NC(=O)[C@H](CCC(=O)O)NC(=O)[C@H](CCCCN)NC(=O)[C@H](CCC(=O)O)NC(=O)[C@H](CCC(N)=O)NC(=O)[C@H](CCCCN)NC(=O)[C@H](CCC(=O)O)NC(=O)[C@@H](NC(=O)[C@H](CCC(=O)O)NC(=O)[C@@H](NC(=O)[C@H](CCSC)NC(=O)[C@H](CCCCN)NC(=O)[C@H](CCCN=C(N)N)NC(=O)[C@H](CC(C)C)NC(=O)[C@H](CC(C)C)NC(=O)[C@H](CCC(=O)O)NC(=O)[C@H](CC(C)C)NC(=O)[C@H](CO)NC(=O)[C@H](CC(C)C)NC(=O)[C@H](CC(=O)O)NC(=O)[C@@H](NC(=O)[C@H](CO)NC(=O)[C@@H](NC(=O)[C@@H]1CCCN1C(=O)[C@@H]1CCCN1C(=O)CNC(=O)[C@@H](N)CCC(N)=O)[C@@H](C)CC)[C@@H](C)CC)[C@@H](C)CC)[C@@H](C)CC)[C@@H](C)O)C(N)=O |
| 61.9 nM | 7.16 nM | 9.7 nM | 86.4 nM | CC[C@H](C)[C@H](NC(=O)[C@H](CC(=O)O)NC(=O)[C@H](CC(C)C)NC(=O)[C@H](CC(C)C)NC(=O)[C@H](CCCCN)NC(=O)[C@H](CCCN=C(N)N)NC(=O)[C@H](CC(N)=O)NC(=O)[C@H](CO)NC(=O)[C@H](Cc1cnc[nH]1)NC(=O)[C@H](C)NC(=O)[C@H](CCC(N)=O)NC(=O)[C@H](CCC(N)=O)NC(=O)[C@H](C)NC(=O)[C@H](CC(C)C)NC(=O)[C@H](CCC(N)=O)NC(=O)[C@H](CC(=O)O)NC(=O)[C@H](C)NC(=O)[C@H](CCCCN)NC(=O)[C@@H](NC(=O)[C@H](CCSC)NC(=O)[C@H](CCC(=O)O)NC(=O)[C@H](CC(C)C)NC(=O)[C@@H](NC(=O)[C@H](CCC(=O)O)NC(=O)[C@H](CCCN=C(N)N)NC(=O)[C@H](CC(C)C)NC(=O)[C@H](CC(C)C)NC(=O)[C@H](Cc1cnc[nH]1)NC(=O)[C@H](Cc1ccccc1)NC(=O)[C@@H](NC(=O)[C@H](CC(C)C)NC(=O)[C@H](CC(=O)O)NC(=O)[C@H](CC(C)C)NC(=O)[C@H](CO)NC(=O)[C@@H](NC(=O)[C@@H]1CCCN1C(=O)[C@@H]1CCCN1C(=O)[C@H](CCC(=O)O)NC(=O)[C@H](CCC(N)=O)NC(=O)[C@@H](N)CO)[C@@H](C)CC)[C@@H](C)O)C(C)C)[C@@H](C)O)C(=O)N[C@@H](C)C(N)=O |
